Results on 17 compounds are retold here after patent publication US8716303B2, “N-(hetero)aryl-pyrrolidine derivatives of pyrazol-4-yl-pyrrolo[2,3-d]pyrimidines and pyrrol-3-yl-pyrrolo[2,3-d]pyrimidines as janus kinase inhibitors” (Incyte Corporation, priority 2009, dated 2014).

Assay [1] concerns the target T1, human JAK1 (a.a. 837-1142) (Homo sapiens, UniProt P23458).
T1 construct: human JAK1 (a.a. 837-1142); His tag (N); made in house; host or cells: insect cells (baculovirus)
Description: In vitro JAK kinase assay (HTRF, phosphorylation of a biotinylated peptide), JAK1. Type of assay: biochemical. The method in brief:
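IC50s come from HTRF detection (Eu-Py20, SA-APC, 40 min binding) after 1 h RT reactions with 500 nM biotinylated peptide in Tris pH 7.8 buffer. ATP either 1 mM or Km-level, 90 μM for JAK1 and 30 μM for JAK2; enzymes are baculovirus-expressed His-tagged catalytic domains (JAK1 837-1142, JAK2 828-1132).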
In general terms: TR-FRET usually uses a lanthanide donor and a delayed reading to cut background.

The next assay concerns the target T2, Jak2 (a.a. 828-1132) (Homo sapiens, UniProt O60674).
T2 construct: Jak2 (a.a. 828-1132); His tag (N); made in house; host or cells: insect cells (baculovirus)
Description: In vitro JAK kinase assay (HTRF, phosphorylation of a biotinylated peptide), JAK2, reported as JAK2/JAK1 ratio. Type of assay: biochemical.

Each structure is given as a SMILES string. Where a name gives a salt, the structure may show the parent alone. Bounds are passed on as bounds.

In general, IC50 refers to the concentration needed to halve the response being measured.

T2 sequence (O60674 828-1132): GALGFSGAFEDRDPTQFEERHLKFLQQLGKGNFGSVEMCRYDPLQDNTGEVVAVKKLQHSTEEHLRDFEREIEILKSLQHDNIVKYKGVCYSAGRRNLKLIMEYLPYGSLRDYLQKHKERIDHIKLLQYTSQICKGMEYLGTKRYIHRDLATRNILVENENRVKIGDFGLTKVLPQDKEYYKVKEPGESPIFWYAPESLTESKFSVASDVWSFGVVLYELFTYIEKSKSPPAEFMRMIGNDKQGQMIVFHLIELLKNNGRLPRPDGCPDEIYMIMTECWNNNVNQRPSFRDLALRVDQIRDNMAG
T1 sequence (P23458 849-1154): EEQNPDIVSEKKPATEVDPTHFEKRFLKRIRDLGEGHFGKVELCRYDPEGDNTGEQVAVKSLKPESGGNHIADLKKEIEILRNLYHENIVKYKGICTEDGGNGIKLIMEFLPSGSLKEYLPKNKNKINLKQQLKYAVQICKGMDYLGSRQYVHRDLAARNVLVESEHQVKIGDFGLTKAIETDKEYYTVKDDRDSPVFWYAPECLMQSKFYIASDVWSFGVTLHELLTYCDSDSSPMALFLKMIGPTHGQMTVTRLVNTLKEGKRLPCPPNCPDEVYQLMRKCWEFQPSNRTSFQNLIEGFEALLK

`N#CCC(C1CCN(c2ccc3c(n2)OCC3)C1)n1cc(-c2ncnc3[nH]ccc23)cn1` (single isomer, unassigned) [Example 155, 3-[1-(2,3-dihydrofuro[2,3-b]pyridin-6-yl)pyrrolidin-3-yl]-3-[4-(7H-pyrrolo[2,3-d]pyrimidin-4-yl)-1H-pyrazol-1-yl]propanenitrile] displayed an IC50 in assay [1] (Assay Conditions 1 mM ATP) of 50 to 100 nM. The “JAK2/JAK1 IC50 ratio” value on Jak2 (a.a. 828-1132) (Assay Conditions 1 mM ATP) turned out to be 5.3.

`N#CC[C@@H]([C@H]1CCN(c2cccc(C#N)c2C#N)C1)n1cc(-c2ncnc3[nH]ccc23)cn1` [Example 49, 3-((3S)-3-{(1S)-2-cyano-1-[4-(7H-pyrrolo[2,3-d]pyrimidin-4-yl)-1H-pyrazol-1-yl]ethyl}pyrrolidin-1-yl)phthalonitrile trifluoroacetate] showed a half-inhibitory concentration (IC50) in assay [1] (Assay Conditions 1 mM ATP) of less than 50 nM. For the same compound, the “JAK2/JAK1 IC50 ratio” value on Jak2 (a.a. 828-1132) (Assay Conditions 1 mM ATP) was found to be 10.2.

As to `N#CC[C@@H]([C@H]1CCN(c2ncnc(C(F)F)c2C#N)C1)n1cc(-c2ncnc3[nH]ccc23)cn1` [Example 110, 4-((S)-3-((S)-1-(4-(7H-pyrrolo[2,3-d]pyrimidin-4-yl)-1H-pyrazol-1-yl)-2-cyanoethyl)pyrrolidin-1-yl)-6-(difluoromethyl)pyrimidine-5-carbonitrile trifluoroacetate salt], the 50% inhibitory concentration (IC50) in assay [1] (Assay Conditions 1 mM ATP) was less than 50 nM. Besides, the “JAK2/JAK1 IC50 ratio” value at Jak2 (a.a. 828-1132) (Assay Conditions 1 mM ATP) was found to be 17.6.

`N#CC[C@@H]([C@H]1CCN(c2cncc(Cl)c2C#N)C1)n1cc(-c2ncnc3[nH]ccc23)cn1` [Example 64, 3-chloro-5-((3S)-3-{(1S)-2-cyano-1-[4-(7H-pyrrolo[2,3-d]pyrimidin-4-yl)-1H-pyrazol-1-yl]ethyl}pyrrolidin-1-yl) isonicotinonitrile trifluoroacetate salt] had a concentration for half-maximal inhibition (IC50) in assay [1] (Assay Conditions 1 mM ATP) of less than 50 nM. For the same compound, on Jak2 (a.a. 828-1132) (Assay Conditions 1 mM ATP), the “JAK2/JAK1 IC50 ratio” value is reported as 11.

Turning to `N#CCC(C1CCN(c2nc3cc(F)cc(F)c3o2)C1)n1cc(-c2ncnc3[nH]ccc23)cn1` (single isomer, unassigned) [Example 22, 3-[1-(5,7-difluoro-1,3-benzoxazol-2-yl)pyrrolidin-3-yl]-3-[4-(7H-pyrrolo[2,3-d]pyrimidin-4-yl)-1H-pyrazol-1-yl]propanenitrile], in assay [1] (Assay Conditions 1 mM ATP), the IC50 is less than 50 nM. Also, the “JAK2/JAK1 IC50 ratio” value at Jak2 (a.a. 828-1132) (Assay Conditions 1 mM ATP) is listed as greater than 7.

In assay [1] (Assay Conditions 1 mM ATP), `N#CC[C@@H]([C@H]1CCN(c2nccnc2C#N)C1)n1cc(-c2ncnc3[nH]ccc23)cn1` [Example 51, 3-((3S)-3-{(1S)-2-cyano-1-[4-(7H-pyrrolo[2,3-d]pyrimidin-4-yl)-1H-pyrazol-1-yl]ethyl}pyrrolidin-1-yl)pyrazine-2-carbonitrile trifluoroacetate] showed a half-inhibitory concentration (IC50) of less than 50 nM. Besides, at Jak2 (a.a. 828-1132) (Assay Conditions 1 mM ATP), the “JAK2/JAK1 IC50 ratio” value was determined as 6.8.

With `N#CC[C@@H]([C@H]1CCN(c2c(F)nc(F)c(F)c2C#N)C1)n1cc(-c2ncnc3[nH]ccc23)cn1` [Example 65, 3-((3S)-3-{(1S)-2-cyano-1-[4-(7H-pyrrolo[2,3-d]pyrimidin-4-yl)-1H-pyrazol-1-yl]ethyl}pyrrolidin-1-yl)-2,5,6-trifluoroisonicotinonitrile trifluoroacetate salt], the 50% inhibitory concentration (IC50) in assay [1] (Assay Conditions 1 mM ATP) was less than 50 nM. Moreover, the “JAK2/JAK1 IC50 ratio” value on Jak2 (a.a. 828-1132) (Assay Conditions 1 mM ATP) came to 9.4.

With `N#Cc1cccc(N2CC[C@H](C(CF)n3cc(-c4ncnc5[nH]ccc45)cn3)C2)c1C#N` (stereo partly drawn) [Example 121, 3-((3S)-3-{2-fluoro-1-[4-(7H-pyrrolo[2,3-d]pyrimidin-4-yl)-1H-pyrazol-1-yl]ethyl}pyrrolidin-1-yl)phthalonitrile trifluoroacetate], the 50% inhibitory concentration (IC50) in assay [1] (Assay Conditions 1 mM ATP) is less than 50 nM. Moreover, the “JAK2/JAK1 IC50 ratio” value at Jak2 (a.a. 828-1132) (Assay Conditions 1 mM ATP) is 4.4.

The compound `N#CC[C@@H]([C@H]1CCN(c2scc(Cl)c2C#N)C1)n1cc(-c2ncnc3[nH]ccc23)cn1` [Example 78, 4-chloro-2-((3S)-3-{(1S)-2-cyano-1-[4-(7H-pyrrolo[2,3-d]pyrimidin-4-yl)-1H-pyrazol-1-yl]ethyl}pyrrolidin-1-yl)thiophene-3-carbonitrile] came in with an IC50 in assay [1] (Assay Conditions 1 mM ATP) of less than 50 nM. Besides, the “JAK2/JAK1 IC50 ratio” value on Jak2 (a.a. 828-1132) (Assay Conditions 1 mM ATP) is 32.1.

Consider `Cc1cnc(N2CC[C@H]([C@H](CC#N)n3cc(-c4ncnc5[nH]ccc45)cn3)C2)c(C#N)c1` [Example 109, 2-((S)-3-((S)-1-(4-(7H-pyrrolo[2,3-d]pyrimidin-4-yl)-1H-pyrazol-1-yl)-2-cyanoethyl)pyrrolidin-1-yl)-5-methylnicotinonitrile trifluoroacetate salt], for which the concentration for half-maximal inhibition (IC50) in assay [1] (Assay Conditions 1 mM ATP) is less than 50 nM. In addition, the “JAK2/JAK1 IC50 ratio” value on Jak2 (a.a. 828-1132) (Assay Conditions 1 mM ATP) worked out at 5.0.

In the case of `N#CC[C@@H]([C@H]1CCN(c2nccc(C(F)(F)F)c2C#N)C1)n1cc(-c2ncnc3[nH]ccc23)cn1` [Example 50, 2-((3S)-3-{(1S)-2-cyano-1-[4-(7H-pyrrolo[2,3-d]pyrimidin-4-yl)-1H-pyrazol-1-yl]ethyl}pyrrolidin-1-yl)-4-(trifluoromethyl)nicotinonitrile trifluoroacetate], the IC50 in assay [1] (Assay Conditions 1 mM ATP) was less than 50 nM. The “JAK2/JAK1 IC50 ratio” value on Jak2 (a.a. 828-1132) (Assay Conditions 1 mM ATP) is 15.4.

As to `N#CCC(C1CCN(c2ccc3c(n2)[S+]([O-])CC3)C1)n1cc(-c2ncnc3[nH]ccc23)cn1` (single isomer, unassigned) [Example 28, 3-[1-(1-oxido-2,3-dihydrothieno[2,3-b]pyridin-6-yl)pyrrolidin-3-yl]-3-[4-(7H-pyrrolo[2,3-d]pyrimidin-4-yl)-1H-pyrazol-1-yl]propanenitrile], in assay [1] (Assay Conditions 1 mM ATP), the IC50 is less than 50 nM. Further, the “JAK2/JAK1 IC50 ratio” value at Jak2 (a.a. 828-1132) (Assay Conditions 1 mM ATP) worked out at 4.

As to `N#CC[C@@H]([C@H]1CCN(c2ncsc2C#N)C1)n1cc(-c2ncnc3[nH]ccc23)cn1` [Example 82, 4-(3-{2-cyano-1-[4-(7H-pyrrolo[2,3-d]pyrimidin-4-yl)-1H-pyrazol-1-yl]ethyl}pyrrolidin-1-yl)-1,3-thiazole-5-carbonitrile], the IC50 in assay [1] (Assay Conditions 1 mM ATP) is less than 50 nM. Besides, at Jak2 (a.a. 828-1132) (Assay Conditions 1 mM ATP), the “JAK2/JAK1 IC50 ratio” value is 6.7.

For the compound `N#CC[C@@H]([C@H]1CCN(c2c(F)cccc2C#N)C1)n1cc(-c2ncnc3[nH]ccc23)cn1` [Example 58, 2-((3S)-3-{(1S)-2-cyano-1-[4-(7H-pyrrolo[2,3-d]pyrimidin-4-yl)-1H-pyrazol-1-yl]ethyl}pyrrolidin-l-yl)-3-fluorobenzonitrile trifluoroacetate salt], the half-maximal inhibitory concentration (IC50) in assay [1] (Assay Conditions 1 mM ATP) is less than 50 nM. The “JAK2/JAK1 IC50 ratio” value on Jak2 (a.a. 828-1132) (Assay Conditions 1 mM ATP) is 8.

Regarding `N#CCC(C1CCN(c2ncc3ccoc3c2C#N)C1)n1cc(-c2ncnc3[nH]ccc23)cn1` (single isomer, unassigned) [Example 169, 6-(3-{2-cyano-1-[4-(7H-pyrrolo[2,3-d]pyrimidin-4-yl)-1H-pyrazol-1-yl]ethyl}pyrrolidin-1-yl)furo[3,2-c]pyridine-7-carbonitrile], in assay [1] (Assay Conditions 1 mM ATP), the IC50 is less than 50 nM. The “JAK2/JAK1 IC50 ratio” value at Jak2 (a.a. 828-1132) (Assay Conditions 1 mM ATP) was greater than 13.3.

In the case of `N#CCC(C1CCN(c2ccnc(Cl)n2)C1)n1cc(-c2ncnc3[nH]ccc23)cn1` (single isomer, unassigned) [3, Step 2b], the IC50 in assay [1] (Assay Conditions Km (ATP 90 μM for Jak1)) was less than 50 nM. On Jak2 (a.a. 828-1132) (Assay Conditions Km (ATP 90 μM for Jak1, 30 μM for Jak2)), the “JAK2/JAK1 IC50 ratio” value is reported as 8.5.

As to `N#CC[C@@H]([C@H]1CCN(c2ncc(CO)nc2C#N)C1)n1cc(-c2ncnc3[nH]ccc23)cn1` [Example 140, 3-((3S)-3-{(1S)-2-cyano-1-[4-(7H-pyrrolo[2,3-d]pyrimidin-4-yl)-1H-pyrazol-1-yl]ethyl}pyrrolidin-1-yl)-6-(hydroxymethyl)pyrazine-2-carbonitrile trifluoroacetate], the 50% inhibitory concentration (IC50) in assay [1] (Assay Conditions 1 mM ATP) was less than 50 nM. In addition, the “JAK2/JAK1 IC50 ratio” value on Jak2 (a.a. 828-1132) (Assay Conditions 1 mM ATP) is reported as 17.4.
